Reference: patent publication US12419869B2, “Methods of treating multiple sclerosis” (Vanda Pharmaceuticals Inc., priority 2021, dated 2025)

How the values were obtained:
[1] = system: adult subjects with relapsing MS; test: 12-lead ECG heart rate and AV conduction at treatment initiation (Day 1, ponesimod 2 mg); format: in vivo, human
Experimental: As per up-titration regimen, the dose of ponesimod on Day 1 is 2 mg.
The incidence of treatment-emergent heart rate and rhythm (including hypotension) AESIs on Day 1 was higher in the ponesimod 20 mg arm (2.1%) than in the teriflunomide 14 mg arm (0.4%). However, the overall incidence of first dose AESI on Day 1 was low (2.1%) in ponesimod. None of these events were serious nor led to permanent discontinuation of study treatment. Discharge criteria at 4 hours post-dose were met for ca. 99% of subjects. […] ECG HR effect: nadir at 2 hours post-dose (siponimod—3-4 hours, fingolimod—around by 6 hours). Low incidence of low HR outliers (post-dose HR 40 bpm), all 3 of them with a pre-treatment HR of <55 bpm, which is a known risk factor for post-dose bradycardia with SIP receptor modulators.
The mean heart rate reduction compared to pre-dose reached a maximum for ponesimod 20 mg at 2-hours post dose, −8.7 bpm compared to −1.7 bpm for teriflunomide 14 mg (FIG. 6).
Initiation of PONVORY may result in a transient decrease in HR. In Study 1, bradycardia at treatment initiation and sinus bradycardia on ECG (defined as HR less than 50 bpm) occurred in 5.8% of PONVORY-treated patients compared to 1.6% of patients receiving teriflunomide 14 mg. After the first titration dose of PONVORY, the decrease in heart rate typically begins within an hour and reaches its nadir within 2-4 hours. The heart rate typically recovers to baseline levels 4-5 hours after administration. The mean decrease in heart rate on Day 1 of dosing was 6 bpm. With up-titration after Day 1, the post-dose decrease in heart rate is less pronounced. […] On Day 1, 3 patients treated with PONVORY had asymptomatic post-dose HR below or equal to 40 bpm; all 3 patients had baseline HRs below 55 bpm.

[2] = system: adult subjects with relapsing MS; test: Pulmonary function (percent predicted FEV1), Study 1; format: in vivo, human
Experimental: In Study 1, the reduction from baseline in percent predicted FEV1 at 2 years was 8.3% in PONVORY-treated patients compared to 4.4% in patients receiving teriflunomide 14 mg. In Study 1, 7 patients discontinued PONVORY because of pulmonary adverse events. There is insufficient information to determine the reversibility of the decrease in FEV1 or FVC after treatment discontinuation. PONVORY should be used with caution in patients with severe respiratory disease (i.e., pulmonary fibrosis, asthma, and chronic obstructive pulmonary disease). Spirometric evaluation of respiratory function should be performed during therapy with PONVORY if clinically indicated.

[3] = system: adult subjects with relapsing MS; test: Blood pressure, Study 1; format: in vivo, human; conditions: for Average increase in diastolic blood pressure / Average increase in systolic blood pressure: Study 1
Experimental: An increase in blood pressure with PONVORY was first detected after approximately 1 month of treatment initiation and persisted with continued treatment. Hypertensive events were reported as an adverse reaction in 10.1% of PONVORY-treated patients and in 9.0% of patients receiving teriflunomide 14 mg. One patient treated with PONVORY experienced a hypertensive crisis but had evidence of longstanding hypertensive heart disease. Blood pressure should be monitored during treatment with PONVORY and managed appropriately.

[4] = system: adult subjects with relapsing MS; test: Confirmed relapses / annualized relapse rate up to EOS, phase III study ponesimod 20 mg vs teriflunomide 14 mg; format: in vivo, human; conditions: for Mean estimate (ARR), confirmed relapses up to EOS: negative binomial regression, teriflunomide 14 mg, ponesimod 20 mg; for Percentage of patients without relapse: study period of approximately 108 weeks
Experimental: Primary efficacy variable/primary timepoint: The primary endpoint was annualized relapse rate (ARR) up to the end of study (EOS) defined as the number of confirmed relapses per subject-year. All available data up to EOS, regardless of treatment discontinuation was included (ITT approach).
The primary statistical analysis of the ARR endpoint was performed on the FAS using a negative binomial model for confirmed relapses, with the stratification variables prior use of disease-modifying therapies (DMTs) and EDSS category as well as the number of relapses in the year prior to study entry, included in the model and time in the study as an offset variable. Sensitivity analyses was performed on the PPS and also based on different subgroups derived from baseline variables.
A relapse is defined as new, worsening or recurrent neurological symptoms that occur at least 30 days after the onset of a preceding relapse, and that last at least 24 hours, in the absence of fever or infection.
A relapse was confirmed by the treating neurologist only when the subjects' symptoms were accompanied by an increase in EDSS/FS (functional system) scores, which were consistent with the subject's symptoms, from a previous clinically stable EDSS/FS assessment (i.e., performed at least 30 days after the onset of any previous relapse), obtained by the efficacy assessor and consistent with the following: • An increase of at least half a step (0.5 points; unless EDSS=0, then an increase of at least 1.0 points is required) or • An increase of at least 1.0 point in at least two FS scores, or • An increase of at least 2.0 points in at least one FS score (excluding bladder/bowel and cerebral).
The primary statistical analysis was performed up to EOS on the FAS using a negative binomial regression model for confirmed relapses, with treatment as a factor and the binary stratification variables (EDSS≤3.5 versus EDSS>3.5; DMTs within last 2 years prior to randomization [Yes/No]) and the number of relapses in the year prior to study entry (categories≤1 (or missing) and […]) included in the model. The model also included an offset variable defined as the log of time on study (in years) from randomization up to EOS.

[5] = system: adult subjects with relapsing MS; parameters: species or system human; conditions: in vivo; for Discontinuation rate because of elevations in hepatic enzymes / Patients with elevations of ALT to 5-fold the ULN or greater / Subjects with ALT increase >3×ULN (label: 3-fold the ULN or greater) / Subjects with ALT increase >8×ULN: human, 2 year
Source text: Based on the individual case review, most ALT/AST increases ≥3×ULN occurred as a single transient asymptomatic episode, resolving with continued treatment or after protocol mandated treatment discontinuation. All but one case of bilirubin increase ≥2×ULN occurred in subjects with pre-treatment bilirubin increases. One case of potential Hy's law occurred in a subject with pre-existing transaminase elevation (ALT>5×ULN), and the event fully resolved within 2 weeks after treatment discontinuation.
In Study 1, elevations of ALT to 5-fold the upper limit of normal (ULN) or greater occurred in 4.6% of patients treated with PONVORY compared to 2.5% of patients who received teriflunomide 14 mg. […] The median time to an elevation of 3-fold the ULN was 3 months. The majority (89%) of patients with ALT increases 3-fold or greater the ULN continued treatment with PONVORY with values returning to less than three times the ULN within approximately 2-4 weeks.

Row | Compound | Mean heart rate change compared to pre-dose at 2 hours post dose (maximum) ([1]; Day 1) | Subjects with asymptomatic post-dose HR ≤40 bpm ([1]; Day 1) | Bradycardia at treatment initiation and sinus bradycardia on ECG (HR less than 50 bpm) ([1]; Study 1) | First-degree AV block (prolonged PR interval on ECG) ([1]; Study 1) | Reduction from baseline in percent predicted FEV1 at 2 years [2] | Average increase in diastolic blood pressure [3] | Average increase in systolic blood pressure [3] | Mean estimate (ARR), confirmed relapses up to EOS ([4]; Full Analysis Set) | Percentage of patients without relapse [4] | Discontinuation rate because of elevations in hepatic enzymes [5] | Patients with elevations of ALT to 5-fold the ULN or greater [5] | Subjects with ALT increase >3×ULN (label: 3-fold the ULN or greater) [5] | Subjects with ALT increase >8×ULN [5] | further results
1 | CCC/N=C1\S/C(=C\c2ccc(OC[C@H](O)CO)c(Cl)c2)C(=O)N1c1ccccc1C [Ponesimod, (R)-5-[3-chloro-4-(2,3-dihydroxy-propoxy)-benz[Z]ylidene]-2-([Z]-propylimino)-3-o-tolyl-thiazolidin-4-one] | −8.7 bpm | 3 | 5.8% | 3.4% | 8.3% | 2.8 mm Hg | 2.9 mm Hg | 0.202 | 70.7% | 2.3% | 4.6% | 17.3% | 0.7% | Subjects meeting discharge criteria at 4 hours post-dose ([1]; Day 1): ca. 99%; Time for heart rate to recover to baseline / pre-dose values ([1]; Day 1): 4 to 5 h; ECG HR effect: time of nadir post-dose ([1]; Day 1, 2 mg): 2 h; Mean decrease in heart rate on Day 1 of dosing ([1]; Study 1): 6 bpm; Second- and third-degree AV blocks ([1]; Study 1): not reported; Time to heart rate nadir / maximal effect after first dose ([1]; post-dose): 2 to 4 h; Patients who discontinued because of pulmonary adverse events [2]: 7; Time after treatment initiation at which blood pressure increase was first detected ([3]; in vivo): approximately 1 month; Raw ARR ([4]; Full Analysis Set, up to EOS): 0.216; Total number of relapses ([4]; Full Analysis Set, up to EOS): 242; Treatment effect (rate ratio) on ARR, ponesimod vs teriflunomide ([4]; Full Analysis Set, up to EOS): 0.695; Relative reduction of ARR compared to teriflunomide 14 mg ([4]; up to EOS): 30.5%; Median time to an ALT elevation of 3-fold the ULN [5]: 3 months; Patients with ALT increases 3-fold or greater the ULN who continued treatment [5]: 89%; Time for ALT values returning to less than three times the ULN on continued treatment [5]: 2-4 weeks
2 | C/C(O)=C(\C#N)C(=O)Nc1ccc(C(F)(F)F)cc1 [Teriflunomide, reference compound] | −1.7 bpm | none | 1.6% | 1.2% | 4.4% | 3.1 mm Hg | 2.8 mm Hg | 0.290 | 60.6% | 1.9% | 2.5% | 8.3% | 2.1% | 
